What was measured:
[1] = system: human CYP1A1; assay: Reporter assay in HepG2 cells: luciferase (Luc) activity, which reflects CYP1A1; details: reporter vectors A to J, N, O, T and U, 40 hours after addition, 3-MC 1 μM, BNF 10 μM
Method: Each of the obtained reporter vector comprising the transcriptional regulatory region of human CYP1A1 and CYP1A2 and reporter vectors comprising the transcriptional regulatory region partially deleted was transiently expressed in HepG2 cells (purchased from RIKEN) by using a transfection reagent (FuGene6, Roche), and 40 hours after the addition of a drug dissolved in DMSO or DMSO alone, the activity of a secreted alkaline phosphatase (SEAP), which reflects CYP1A2, and the activity of a luciferase (Luc), which reflects CYP1A1, were measured. LumiPhos 530 (Lumigen Inc.) was used as a substrate for the measurement of the SEAP activity. The Luc activity was measured by using Luciferase Assay System (Promega) (FIG. 3).
(§1) In the same manner as that in 4, each of the expression vectors A to J, N, O, T and U was transiently expressed in HepG2 cells by using the transfection reagent, and 40 hours after the addition of a drug dissolved in DMSO or DMSO alone, activity of a secreted alkaline phosphatase (SEAP), which reflects CYP1A2, and activity of a luciferase (Luc), which reflects CYP1A1, were measured.

[2] = system: transcriptional regulatory region of human CYP1A1 and CYP1A2; assay: Reporter assay in HepG2 cells with dual reporter vectors, reporter (SEAP/Luc) not distinguished in the statement; details: for enhancement of expression of the reporter: reporter vector T (comprises XRE E8, lacks 1535 to 2866); for induction of expression of the reporter: reporter vector U (does not comprise XRE E8); for reporter activities compared with DMSO: reporter vectors E1 to E5 (each one XRE deleted), E3 slightly lower; for enhancement of the expression of the reporter: reporter vectors comprising nucleotide numbers 1535 to 2867 in SEQ ID NO: 1 (XREs densely exist), HepG2
Method: (§2) Each of the obtained reporter vector comprising the transcriptional regulatory region of human CYP1A1 and CYP1A2 and reporter vectors comprising the transcriptional regulatory region partially deleted was transiently expressed in HepG2 cells (purchased from RIKEN) by using a transfection reagent (FuGene6, Roche), and 40 hours after the addition of a drug dissolved in DMSO or DMSO alone, the activity of a secreted alkaline phosphatase (SEAP), which reflects CYP1A2, and the activity of a luciferase (Luc), which reflects CYP1A1, were measured. LumiPhos 530 (Lumigen Inc.) was used as a substrate for the measurement of the SEAP activity.
A reporter assay was performed by using the obtained vectors.

[3] = system: human CYP1A2; assay: Reporter assay in HepG2 cells: secreted alkaline phosphatase (SEAP) activity, which reflects CYP1A2; assay type: cell-based; details: for reporter activity (SEAP) compared with DMSO: expression vector K, L or P (only region neighboring CYP1A2); for reporter activity (SEAP) compared with DMSO / reporter activity (SEAP): 40 hours; for reporter activity (SEAP): expression vector M; for SEAP activity compared with the group where DMSO alone was added: reporter vectors A to J, N, O, T and U, 40 hours after addition, 3-MC 1 μM, BNF 10 μM
Method: as §2
In the same manner as that in 4, the expression vectors K to M and P to S obtained above were transiently expressed in HepG2 cells by using the gene transfer reagent, and 40 hours after the addition of a drug dissolved in DMSO or DMSO alone, activity of a secreted alkaline phosphatase (SEAP) was measured (FIG. 5).
as §1

| SMILES | Luc activity compared with the group where DMSO alone was added [1] | enhancement of expression of the reporter [2] | induction of expression of the reporter [2] | reporter activities compared with DMSO [2] | enhancement of the expression of the reporter [2] | reporter activity (SEAP) compared with DMSO [3] [fold] | reporter activity (SEAP) [3] | SEAP activity compared with the group where DMSO alone was added [3] |
| --- | --- | --- | --- | --- | --- | --- | --- | --- |
| O=c1cc(-c2ccccc2)oc2ccc3ccccc3c12 [BNF, β-naphthoflavone] | increase in the SEAP activity and Luc activity was observed | strong enhancement of expression | did not show the induction | several folds to 10 or more folds higher | intense enhancement of the expression | ~1 | at the background level | increase in the SEAP activity and Luc activity was observed |
| Cc1ccc2cc3c(ccc4ccccc43)c3c2c1CC3 [3-MC, 3-methylcholanthrene] | increase in the SEAP activity and Luc activity was observed | strong enhancement of expression | did not show the induction | several folds to 10 or more folds higher | intense enhancement of the expression | ~1 | at the background level | increase in the SEAP activity and Luc activity was observed |
| COc1ccc2[nH]c([S+]([O-])Cc3ncc(C)c(OC)c3C)nc2c1 (centres unmarked) [omeprazole] |  |  |  | several folds to 10 or more folds higher |  |  |  |  |

From patent US7910362B2, “Reporter vector for use in evaluation of CYP1A2 induction” (Eisai R&D Management Co., Ltd., priority 2005, dated 2011)
